Measurements published in patent US3974140A, “Ureidoacetamido-penicillins” (Bayer Aktiengesellschaft, priority 1970, dated 1976).

What was measured:
Assay in all cases: MIC, liquid medium test tube series dilution test
[1] = tested on: Proteus vulg. 1017; assay type: cell-based, Proteus vulgaris; conditions: Proteus vulg. 1017, 24 hours, 37°C
Method in brief: (§1)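 Penicillins were serially diluted in test tubes of complete liquid medium, inoculated, incubated 24 hours at 37°C, and inspected; the non-turbid tube of the series marked the minimum inhibitory concentration (units/ml).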

[2] = tested on: Proteus vulg. 3400; assay type: cell-based, Proteus vulgaris; conditions: Proteus vulg. 3400, 24 hours, 37°C
Method in brief: as §1

[3] = tested on: Psdm. aerug. Walter; assay type: cell-based, Pseudomonas aerug.; conditions: 24 hours, 37°C
Method in brief: as §1

[4] = tested on: Psdm. aerug. Bonn; assay type: cell-based, Pseudomonas aerug.; conditions: 24 hours, 37°C
Method in brief: as §1

[5] = tested on: Staph. aureus 1777 E; assay type: cell-based, Staphylococcus aureus; conditions: 24 hours, 37°C
Method in brief: as §1

[6] = tested on: Staph. aureus 133; assay type: cell-based, Staphylococcus aureus; conditions: Staph. aureus 133, 24 hours, 37°C
Method in brief: as §1

[7] = tested on: Klebsiella 63; assay type: cell-based; conditions: Klebsiella 63, 24 hours, 37°C
Method in brief: as §1

[8] = tested on: E. coli C 165; assay type: cell-based; conditions: E. coli C 165, 24 hours, 37°C
Method in brief: as §1

[9] = tested on: E. coli 14; assay type: cell-based; conditions: E. coli 14, 24 hours, 37°C
Method in brief: as §1

[10] = tested on: Streptoc. faec. ATCC 9790; assay type: cell-based; conditions: Strep. faec. (Enterococcus) ATCC 9790, 24 hours, 37°C
Method in brief: as §1

[11] = tested on: Klebsiella K 10; assay type: cell-based; conditions: Klebsiella K 10, 24 hours, 37°C
Method in brief: as §1

[12] = tested on: E. coli A 261; assay type: cell-based; conditions: E. coli A 261, 24 hours, 37°C
Method in brief: as §1

[13] = tested on: E. coli 183/58; assay type: cell-based; conditions: E. coli 183/58, 24 hours, 37°C
Method in brief: as §1

| Structure (SMILES) | MIC [1] | MIC [2] | MIC [3] | MIC [4] | MIC [5] | MIC [6] | MIC [7] | MIC [8] | MIC [9] | MIC [10] | MIC [11] | MIC [12] | MIC [13] |
| --- | --- | --- | --- | --- | --- | --- | --- | --- | --- | --- | --- | --- | --- |
| CN(C(=O)N[C@@H](C(=O)N[C@@H]1C(=O)N2[C@@H]1SC(C)(C)[C@@H]2C(=O)O)c1ccccc1)C(=O)c1cccc(Cl)c1 [Example 117, Sodium D(-)-α-(3-m-chlorobenzoyl-3-methyl-ureido)-benzylpenicillin] | 3.12 units/ml | 3.12 units/ml | 12.5 units/ml | 12.5 units/ml | 12.5 units/ml | 0.8 units/ml | 12.5 units/ml | 1.56 units/ml | < 0.78 units/ml | 50 units/ml | 6.25 units/ml | 50 units/ml | 1.56 units/ml |
| CN(C(=O)N[C@@H](C(=O)N[C@@H]1C(=O)N2[C@@H]1SC(C)(C)[C@@H]2C(=O)O)c1ccccc1)C(=O)N1CCCCC1 [Example 123, Sodium D(-)-α-(3-[1-piperidyl]-carbonyl-3-methyl-ureido)-benzylpenicillin] | 50 units/ml | 100 units/ml | 100 units/ml | 50 units/ml | 25 units/ml | < 0.8 units/ml | 100 units/ml | 25 units/ml | 3.12 units/ml | 200 units/ml | 50 units/ml | > 400 units/ml | 12.5 units/ml |
| CN(C(=O)N[C@@H](C(=O)N[C@@H]1C(=O)N2[C@@H]1SC(C)(C)[C@@H]2C(=O)O)c1ccccc1)C(=O)N1CCCC1 [Example 124, Sodium D(-)-α-(3-[1-pyrrolidyl]-carbonyl-3-methyl-ureido)-benzylpenicillin] | 50 units/ml | 50 units/ml | 100 units/ml | 50 units/ml | 25 units/ml | < 0.78 units/ml | 50 units/ml | 12.5 units/ml | 3.12 units/ml | 200 units/ml | 50 units/ml | > 400 units/ml | 25 units/ml |
| CN(C(=O)N[C@@H](C(=O)N[C@@H]1C(=O)N2[C@@H]1SC(C)(C)[C@@H]2C(=O)O)c1ccccc1)C(=O)N1CCOCC1 [Example 125, Sodium D(-)-α-(3-[4-morpholinyl]-carbonyl-3-methyl-ureido)-benzylpenicillin] | 50 units/ml | 100 units/ml | 100 units/ml | 50 units/ml | 50 units/ml | 3.12 units/ml | 100 units/ml | 25 units/ml | 3.12 units/ml | 200 units/ml | 200 units/ml | > 400 units/ml | 50 units/ml |
| CCN(CC)C(=O)N(C)C(=O)N[C@@H](C(=O)N[C@@H]1C(=O)N2[C@@H]1SC(C)(C)[C@@H]2C(=O)O)c1ccccc1 [Example 126, Sodium D(-)-α-(3-diethylaminocarbonyl-3-methyl-ureido)-benzylpenicillin] | 100 units/ml | 100 units/ml | 200 units/ml | 100 units/ml | 100 units/ml | 1.56 units/ml | 200 units/ml | 50 units/ml | 12.5 units/ml | 200 units/ml | 100 units/ml | > 400 units/ml | 50 units/ml |

Other lines, results leading:

| MIC [1] | MIC [2] | MIC [3] | MIC [4] | MIC [5] | MIC [6] | MIC [7] | MIC [8] | MIC [9] | MIC [10] | MIC [11] | MIC [12] | MIC [13] | Structure (SMILES) |
| --- | --- | --- | --- | --- | --- | --- | --- | --- | --- | --- | --- | --- | --- |
| 0.8-4 units/ml | 0.8-4 units/ml | 4-20 units/ml | 4-20 units/ml | 4-20 units/ml | 0.8 units/ml | 4-20 units/ml | 0.8-4 units/ml | < 0.8 units/ml | 4-20 units/ml | 4-20 units/ml | 20-100 units/ml | < 0.8 units/ml | CN(C(=O)N[C@@H](C(=O)N[C@@H]1C(=O)N2[C@@H]1SC(C)(C)[C@@H]2C(=O)O)c1ccccc1)C(=O)c1cc(Cl)ccc1Cl [Example 111, Sodium D(-)-α-(3-[2,5-dichlorobenzoyl]-3-methyl-ureido)-benzylpenicillin] |
| 0.8-4 units/ml | 0.8-4 units/ml | 4-20 units/ml | 4- 20 units/ml | 20-100 units/ml | 0.8 units/ml | 4-20 units/ml | 0.8-4 units/ml | < 0.8 units/ml | 4-20 units/ml | 4-20 units/ml | 20-100 units/ml | < 0.8 units/ml | CN(C(=O)N[C@@H](C(=O)N[C@@H]1C(=O)N2[C@@H]1SC(C)(C)[C@@H]2C(=O)O)c1ccccc1)C(=O)c1ccc(Cl)cc1 [Example 112, Sodium D(-)-α-(3-p-chlorebenzoyl-3-methyl-ureido)-benzylpenicillin] |
| 100 units/ml | 200 units/ml | 200 units/ml | 200 units/ml | 100 units/ml | 1.6 units/ml | 200 units/ml | 50 units/ml | 12.5 units/ml | 50 units/ml | 100 units/ml | > 400 units/ml | 200 units/ml | CC(=O)N(C)C(=O)NC(C(=O)N[C@@H]1C(=O)N2[C@@H]1SC(C)(C)[C@@H]2C(=O)O)c1ccc(C)cc1 (stereo partly drawn) [Example 118, Sodium α-(3-acetyl-3-methyl-ureido)-4-methylbenzylpenicillin] |
| > 400 units/ml | > 400 units/ml | > 400 units/ml | > 400 units/ml | 200 units/ml | 1.6 units/ml | > 400 units/ml | 200 units/ml | 25 units/ml | 100 units/ml | 400 units/ml | > 400 units/ml | 400 units/ml | Cc1ccc(C(NC(=O)N(C)C(=O)N(C)C)C(=O)N[C@@H]2C(=O)N3[C@@H]2SC(C)(C)[C@@H]3C(=O)O)cc1 (stereo partly drawn) [Example 119, Sodium R,S-α-(3-dimethylaminocarbonyl-3-methyl-ureido)-4-methylbenzylpenicillin] |
| 100 units/ml | 200 units/ml | 100 units/ml | 100 units/ml | 100 units/ml | < 0.8 units/ml | 100 units/ml | 50 units/ml | 6 units/ml | 100 units/ml | 25 units/ml | > 400 units/ml | 100 units/ml | CC(=O)N(C)C(=O)NC(C(=O)N[C@@H]1C(=O)N2[C@@H]1SC(C)(C)[C@@H]2C(=O)O)c1ccc(Cl)cc1 (stereo partly drawn) [Example 121, Sodium R,S-α-(3-acetyl-3-methyl-ureido)-4-chlorobenzylpenicillin] |
| 100 units/ml | 400 units/ml | 400 units/ml | 200 units/ml | 400 units/ml | 1.6 units/ml | 100 units/ml | 50 units/ml | 12.5 units/ml | 100 units/ml | 50 units/ml | > 400 units/ml | 200 units/ml | CC(=O)N(C)C(=O)NC(C(=O)N[C@@H]1C(=O)N2[C@@H]1SC(C)(C)[C@@H]2C(=O)O)c1cccs1 (stereo partly drawn) [Example 122, Sodium D,L-α-(3-acetyl-3-methyl-ureido)-α-thienyl(2)-methylpenicillin] |
| 3.12 units/ml | 6.25 units/ml | 25 units/ml | 12.5 units/ml | 12.5 units/ml | < 0.78 units/ml | 12.5 units/ml | 3.12 units/ml | 0.78 units/ml | 25 units/ml | 12.5 units/ml | 50 units/ml | 1.56 units/ml | CN(C(=O)N[C@@H](C(=O)N[C@@H]1C(=O)N2[C@@H]1SC(C)(C)[C@@H]2C(=O)O)c1ccccc1)C(=O)c1ccc(Cl)cc1[N+](=O)[O-] [Example 127, Sodium D(-)-α-(3-[2-nitro-4-chlorobenzoyl]-3-methyl-ureido)-benzylpenicillin] |
